Test [1] deals with DIGSA. Put plainly: Pre-emergence herbicidal action against DIGSA. Type of test: in vivo, Digitaria sanguinalis. From the text: (§1) Seeds of monocotyledonous and dicotyledonous weed plants and crop plants are laid out in sandy loam soil in wood-fiber pots and covered with soil. The compounds of the invention, formulated in the form of wettable powders (WP) or as emulsion concentrates (EC), are then applied to the surface of the covering soil in the form of an aqueous suspension or emulsion at a water application rate equivalent to 600 to 800 l/ha, with addition of 0.2% wetting agent. After the treatment, the pots are placed in a greenhouse and kept under good growth conditions for the trial plants. The damage to the test plants is scored visually after a test period of 3 weeks by comparison with untreated controls (herbicidal activity in percent (%): 100% activity=the plants have died, 0% activity=like control plants). […] The tables below illustrate, in an illustrative manner, the post-emergence herbicidal action of the compounds of the invention, the herbicidal activity being stated in percent.

For test [2], the system named is MATIN. Put plainly: Pre-emergence herbicidal action against MATIN. Type of test: in vivo, Matricaria inodora.
Source text: as §1

The subject of test [3] is ABUTH. Put plainly: Pre-emergence herbicidal action against ABUTH. It counts as in vivo, Abutilon theophrasti.
Source text: as §1

For test [4], the system named is AMARE. The test is described as follows: Pre-emergence herbicidal action against AMARE. It counts as in vivo, Amaranthus retroflexus.
Source text: as §1

The test system of test [5] is VIOTR. The test is described as follows: Pre-emergence herbicidal action against VIOTR. It counts as in vivo, Viola tricolor.
Source text: as §1

The test system of test [6] is VIOTR. Put plainly: Post-emergence herbicidal action against VIOTR. It counts as in vivo, Viola tricolor. Particulars: 20 g/ha. The protocol: (§2) Seeds of monocotyledonous and dicotyledonous weed and crop plants are laid out in sandy loam soil in wood-fiber pots, covered with soil and cultivated in a greenhouse under good growth conditions. 2 to 3 weeks after sowing, the test plants are treated at the one-leaf stage. The compounds of the invention, formulated in the form of wettable powders (WP) or as emulsion concentrates (EC), are then sprayed onto the green parts of the plants in the form of an aqueous suspension or emulsion at a water application rate equivalent to 600 to 800 l/ha, with addition of 0.2% wetting agent. After the test plants have been left to stand in the greenhouse under optimal growth conditions for about 3 weeks, the action of the preparations is assessed visually in comparison to untreated controls (herbicidal action in percent (%): 100% activity=the plants have died, 0% activity=like control plants). […] The tables below illustrate, in an illustrative manner, the post-emergence herbicidal action of the compounds of the invention, the herbicidal activity being stated in percent.

The subject of test [7] is ABUTH. The test is described as follows: Post-emergence herbicidal action against ABUTH. It counts as in vivo, Abutilon theophrasti. Particulars: dosage 20 g/ha, visual assessment about 3 weeks after treatment vs untreated controls. The protocol: as §2
The test system of test [8] is ECHCG. Put plainly: Post-emergence herbicidal action against ECHCG. It counts as in vivo, Echinochloa crus-galli. As for the experimental part:
as §2

For test [9], the system named is SETVI. The test is described as follows: Pre-emergence herbicidal action against SETVI. It counts as in vivo, Setaria viridis. Particulars: dosage 80 g/ha.
Source text: as §1

The test system of test [10] is ECHCG. Put plainly: Pre-emergence herbicidal action against ECHCG. Type of test: in vivo, Echinochloa crus-galli. Conditions: 80 g/ha.
Source text: as §1

[11] abbreviates: 80 g/ha, scored visually after 3 weeks vs untreated controls (100% = plants have died, 0% = like control plants).
[12] abbreviates: 20 g/ha, scored visually after 3 weeks vs untreated controls, 100% = plants have died, 0% = like control plants.

Experimental findings from patent US12655116B2, “Substituted isophthalic acid diamides” (Bayer Aktiengesellschaft, priority 2020, dated 2026) are described below.

Consider `Cn1nnnc1NC(=O)c1ccc(C(F)(F)F)c(C(=O)Nc2ccccc2)c1Cl` [Example 1-143], for which the pest or weed control at 80 g/ha in [1] (Digitaria sanguinalis, 504 h, dosage 80 g/ha) turned out to be 80%; in [2] (Tripleurospermum inodorum, 504 h, dosage 80 g/ha), 100%; in [3] (Abutilon theophrasti, 504 h, 80 g/ha, scored visually after 3 weeks vs untreated controls (100% = plants have died, 0% = like control plants)), 100%; in test [4] (Amaranthus retroflexus, 504 h, 80 g/ha, scored visually after 3 weeks vs untreated controls, 100% = plants have died, 0% = like control plants) it was 100%. This compound returned a pest or weed control at 20 g/ha in [2] (Tripleurospermum inodorum, 504 h, dosage 20 g/ha) of 80%.

As to `CSCCNC(=O)c1c(C(F)F)ccc(C(=O)Nc2nnnn2C)c1Cl` [Example 1-157], the “Pre-emergence action against AMARE in %” value in test [4] (setting [11]) worked out at 100%.

Take `CCn1nnnc1NC(=O)c1ccc(C(F)F)c(C(=O)NCCSC)c1C` [Example 2-347]: the “Pre-emergence action against ABUTH (herbicidal activity)” value in [3] (setting [11]) is given as 100%.

In the case of `CNC(=O)c1c(C(F)F)ccc(C(=O)Nc2nnc(C)o2)c1OC` [Example 6-49], the “Pre-emergence action against VIOTR in %” value in test [5] (dosage 20 g/ha) and in test [5] (dosage 80 g/ha) was 80% in each case. In addition, the “Post-emergence action against VIOTR in %” value in [6] is recorded as 80%. Moreover, the “Pre-emergence action against AMARE in %” value in test [4] (setting [12]) was 80%; in test [4] (setting [11]), 100%. For the same compound, the “Post-emergence action against ABUTH in %” value in test [7] was found to be 80%.

For `CCNC(=O)c1c(C(F)F)ccc(C(=O)Nc2nnc(C)o2)c1OC` [Example 6-50], in test [1] (dosage 80 g/ha), the “Pre-emergence action against DIGSA in %” value is on record as 100%. For the same compound, the “Post-emergence action against VIOTR in %” value in test [6] worked out at 80%. For the same compound, in test [8] (dosage 20 g/ha), the “Post-emergence action against ECHCG in %” value was found to be 80%. In addition, the “Pre-emergence action against MATIN in %” value in test [2] (dosage 80 g/ha) is listed as 80%. In addition, in test [3] (setting [11]), the “Pre-emergence action against ABUTH (herbicidal activity)” value is given as 90%. The “Pre-emergence action against AMARE in %” value in test [4] (setting [12]) and in test [4] (setting [11]) was 100% each time. Moreover, the “Post-emergence action against ABUTH in %” value in [7] was 80%.

`COc1c(C(=O)Nc2nnc(C)o2)ccc(C(F)F)c1C(=O)NC1CC1` [Example 6-51]: the “Pre-emergence action against DIGSA in %” value in test [1] (dosage 80 g/ha) was found to be 100%. For the same compound, in [8] (dosage 20 g/ha), the “Post-emergence action against ECHCG in %” value is recorded as 80%. The “Pre-emergence action against ABUTH (herbicidal activity)” value in [3] (setting [11]) is 100%. For the same compound, the entries for the “Pre-emergence action against AMARE in %” value in [4] (setting [12]) and in test [4] (setting [11]) were 80% and 100%, respectively.

`Cc1nnc(NC(=O)c2ccc(Br)c(C(=O)NCC3CC3)c2Cl)o1` [Example 6-143]: the “Pre-emergence action against DIGSA in %” value in [1] (dosage 80 g/ha) was found to be 100%. In addition, in test [3] (setting [11]), the “Pre-emergence action against ABUTH (herbicidal activity)” value is given as 100%. For the same compound, the “Pre-emergence action against ABUTH (herbicidal activity in percent)” value in test [3] (dosage 20 g/ha, scored visually after 3 weeks vs untreated controls, 100% = plants have died, 0% = like control plants) was found to be 100%. In addition, the “Pre-emergence action against AMARE in %” value in [4] (setting [12]) and in [4] (setting [11]) was 100% in each case.

Turning to `Cc1nnc(NC(=O)c2ccc(Br)c(C(=O)NCC(F)(F)F)c2Cl)o1` [Example 6-144], the entries for the “Pre-emergence action against DIGSA in %” value in [1] (dosage 20 g/ha) and in [1] (dosage 80 g/ha) were 90% and 100%, respectively. The “Pre-emergence action against SETVI in %” value in [9] is recorded as 90%. In [8] (dosage 20 g/ha), the “Post-emergence action against ECHCG in %” value is given as 80%. For the same compound, in test [2] (dosage 80 g/ha), the “Pre-emergence action against MATIN in %” value was determined as 80%. The “Pre-emergence action against ABUTH (herbicidal activity)” value in test [3] (setting [11]) came to 90%. Besides, the results for the “Pre-emergence action against AMARE in %” value in test [4] (setting [12]) and in test [4] (setting [11]) were 90% and 100%, respectively. For the same compound, the “Pre-emergence action against ECHCG in %” value in test [10] is 100%.

With `Cc1nnc(NC(=O)c2ccc(C(F)F)c(C(=O)NC3CC3)c2C2CC2)o1` [Example 6-233], the “Pre-emergence action against DIGSA in %” value in test [1] (dosage 80 g/ha) amounted to 90%. In test [8] (dosage 20 g/ha), the “Post-emergence action against ECHCG in %” value worked out at 80%. For the same compound, the “Pre-emergence action against AMARE in %” value in test [4] (setting [11]) is 80%.

Take `Cc1nnc(NC(=O)c2ccc(Br)c(C(=O)NC(C)C3CC3)c2Cl)o1` (stereo not shown) [Example 6-257]: in test [1] (dosage 80 g/ha), the “Pre-emergence action against DIGSA in %” value turned out to be 100%. The “Post-emergence action against ECHCG in %” value in test [8] (dosage 5 g/ha) amounted to 80%; in test [8] (dosage 20 g/ha), 90%. Also, the “Pre-emergence action against MATIN in %” value in test [2] (dosage 20 g/ha) is 80%; in [2] (dosage 80 g/ha), 90%. Moreover, in test [3] (setting [11]), the “Pre-emergence action against ABUTH (herbicidal activity)” value came out at 100%. Further, the “Pre-emergence action against AMARE in %” value in test [4] (setting [11]) came to 100%. For the same compound, the “Pre-emergence action against ECHCG in %” value in test [10] came out at 80%.

Turning to `Cc1nnc(NC(=O)c2ccc(C(F)F)c(C(=O)NCC(=O)N(C)C)c2Cl)o1` [Example 6-265], the “Pre-emergence action against AMARE in %” value in test [4] (setting [11]) is listed as 80%.

Usually pest or weed control stands for the degree to which the test organism was suppressed or injured, in per cent. Read a low pest or weed control as a weak effect.
